Results from the Deep4Chem optical property database.
Values belong to the molecule of their own block, whether it stands above or below them.

Experiment: photoluminescence quantum yield (fraction); solvent given as SMILES
[1] = in O=P(c1ccccc1)(c1ccccc1)c1ccccc1Oc1ccccc1P(=O)(c1ccccc1)c1ccccc1

photoluminescence quantum yield (in ClCCl): 0.2
SMILES: Cc1cc2cc(C)c3c4ccccc4[nH]c3c2o1

photoluminescence quantum yield (in ClCCl): 0.59
SMILES: CN(C)c1ccc(/C=C/c2cc(/C=C/c3ccc(N(C)C)cc3)nc(/C=C/c3ccc(N(c4ccccc4)c4ccccc4)cc3)n2)cc1

photoluminescence quantum yield (in CCO): 0.31
SMILES: CC(C)(C)Nc1cc2oc3cc(NC(C)(C)C)c(F)cc3c(=O)c2cc1F

photoluminescence quantum yield (in C1CCOC1): 0.11 | photoluminescence quantum yield (in CC#N): 0.03 | photoluminescence quantum yield (in CCCCCC): 0.37
SMILES: CC(O)CC1=N/C(=C\c2cccc(N(C)C)c2)C(=O)N1C (configuration not stated)

photoluminescence quantum yield (in ClCCl): 0.082
SMILES: CCCCCc1c(C(=O)c2ccc3c4c(cccc24)-c2cccc4c2C3CC=C4)c2ccc3cccc4c5cccc6ccc1c(c65)c2c34 (configuration not stated)

photoluminescence quantum yield (in C1CCOC1): 0.79
SMILES: CCOC(=O)c1ccc(C2=CC3=c4cc(-c5ccc(C(=O)OCC)cc5)c5nc(C(F)(F)C(F)(F)C(F)(F)F)nc6c(-c7ccc(C(=O)OCC)cc7)cc(c4c65)C4=CC(c5ccc(C(=O)OCC)cc5)=C5N=C(C(F)(F)C(F)(F)C(F)(F)F)N=C2C5C43)cc1 (configuration not stated)

photoluminescence quantum yield (in ClCCl): 0.45
SMILES: N#Cc1ccc(-c2cn3cc(C#N)c[n+]3[n-]2)cc1

photoluminescence quantum yield (in ClCCl): 0.46
SMILES: CCN1c2ccc(C3=CC(c4ccccc4)=[O+][B-](F)(F)O3)cc2Sc2cc(C3=CC(c4ccccc4)=[O+][B-](F)(F)O3)ccc21

photoluminescence quantum yield (in CO): 0.53
SMILES: c1ccc(N(c2ccccc2)c2ccc(-c3cncs3)cc2)cc1

SMILES: O=S(=O)([O-])c1ccccc1/C=C/c1ccc(-c2nnc(-c3ccc(/C=C/c4ccccc4S(=O)(=O)[O-])cc3)o2)cc1
photoluminescence quantum yield (in C1CCOC1): 0.22 | photoluminescence quantum yield (in CC(C)=O): 0.17 | photoluminescence quantum yield (in CN(C)C=O): 0.75

photoluminescence quantum yield (in CC(C)O): 0.09
SMILES: CCN1C(=CC2=C([O-])C(=CC3=[N+](CC)c4ccccc4C3(C)C)C2=O)C(C)(C)c2ccccc21

photoluminescence quantum yield (in ClCCl): 0.18
SMILES: c1ccc(-c2ccc(-c3cc(-c4ccccn4)nc(-c4ccccn4)c3)cc2)cc1

photoluminescence quantum yield (in ClCCl): 0.12
SMILES: CC(C)[Si](C#Cc1ccc(C#Cc2c3cc4ccccc4cc3c(C#C[Si](C(C)C)(C(C)C)C(C)C)c3cc4ccccc4cc23)cc1)(C(C)C)C(C)C

photoluminescence quantum yield (in ClC(Cl)Cl): 0.06
SMILES: F[B-]1(F)n2c(c(-c3ccccc3)c3c2C2=Cc4ccccc4OC2CC3)C=C2C(c3ccccc3)=C3CCC4Oc5ccccc5C=C4C3=[N+]21 (configuration not stated)

SMILES: CN(C)c1ccc(C2=Cc3c4ccccc4c4ccccc4[n+]3[B-](F)(F)O2)cc1
photoluminescence quantum yield (in C1CCOC1): 0.585 | photoluminescence quantum yield (in C1COCCO1): 0.855 | photoluminescence quantum yield (in CC1CCCCC1): 1 | photoluminescence quantum yield (in CC#N): 0.447 | photoluminescence quantum yield (in CCOC(C)=O): 0.655 | photoluminescence quantum yield (in CCOCC): 0.999 | photoluminescence quantum yield (in CN(C)C=O): 0.323 | photoluminescence quantum yield (in CO): 0.471 | photoluminescence quantum yield (in COC(C)=O): 0.441 | photoluminescence quantum yield (in ClC(Cl)Cl): 0.811

photoluminescence quantum yield (in ClCCl): 0.04
SMILES: O=C1c2ccccc2-c2nc3ccccc3n21

photoluminescence quantum yield (in ClC(Cl)Cl): 0.542
SMILES: F[B-]1(F)OC(c2ccc(N3CCCC3)cc2)=Cc2cccc[n+]21

photoluminescence quantum yield (in CC#N): 0.0041 | photoluminescence quantum yield (in CC(C)O): 0.054 | photoluminescence quantum yield (in CCO): 0.082 | photoluminescence quantum yield (in CO): 0.12 | photoluminescence quantum yield (in OCCO): 0.23
SMILES: Cc1ccc2sc3cc(CCC(=O)O)ccc3c(=O)c2c1

photoluminescence quantum yield (in ClCCl): 0.85
SMILES: COc1ccc(C#Cc2c3ccccc3c(C#Cc3ccc(OC)cc3)c3cc4ccccc4cc23)cc1

photoluminescence quantum yield (in CS(C)=O): 0.11
SMILES: Clc1ccc(-c2nc3ccccc3c3cc4ccccn4c23)s1

photoluminescence quantum yield (in ClCCl): 0.26
SMILES: CCN(CC)c1ccc2n1[B-](F)(F)[N+]1=CC(/C=C/C(=O)OC(C)(C)C)=CC1=C2c1c(C)cc(C)cc1C

photoluminescence quantum yield (in CS(C)=O): 0.84
SMILES: c1cnc2c(c1)c1nc(-c3ccc(-c4nc5c6cccnc6c6ncccc6c5[nH]4)cc3)[nH]c1c1cccnc12

photoluminescence quantum yield (in CCCCCCCCO): 0.68 | photoluminescence quantum yield (in CCCCCCO): 0.66 | photoluminescence quantum yield (in CCCCO): 0.61 | photoluminescence quantum yield (in CCCO): 0.62 | photoluminescence quantum yield (in CCO): 0.41 | photoluminescence quantum yield (in CO): 0.26 | photoluminescence quantum yield (in O): 0.041
SMILES: CCN(CC)c1ccc2c(C)cc(=O)oc2c1

photoluminescence quantum yield (in ClCCl): 0.65
SMILES: c1ccc(N(c2ccccc2)c2ccc3c4cccc5c(N(c6ccccc6)c6ccccc6)ccc(c6cccc2c63)c54)cc1

photoluminescence quantum yield (in C1CCCCC1): 0.007 | photoluminescence quantum yield (in CO): 0.002
SMILES: C/C(=C\c1ccccc1)c1nc2ccccc2o1

photoluminescence quantum yield (in ClC(Cl)Cl): 0.55
SMILES: CC1(C)CC[N+]2=c3c(cc4c(c31)Oc1cc3c(cc1C=4c1ccccc1C(=O)O)C(c1ccccc1C(=O)O)=c1cc4c5c(c1O3)C(C)(C)CC[N+]=5CCC4)CCC2

photoluminescence quantum yield (in C1CCCCC1): 0.35 | photoluminescence quantum yield (in CC#N): 0.39 | photoluminescence quantum yield (in CO): 0.26 | photoluminescence quantum yield (in ClCCl): 0.36
SMILES: COc1c2ccccc2c(OC)c2c1c1ccc(C(F)(F)F)cc1n2C

photoluminescence quantum yield (in CS(C)=O): 0.11
SMILES: C[N+]1=C(/C=C/C=C2/N(CCC[N+](C)(C)C)c3ccc(Br)cc3C2(C)C)C(C)(C)c2ccccc21

SMILES: CN(C)c1ccc(/C=C/c2nc3ccc(N(C)C)cc3oc2=O)cc1
photoluminescence quantum yield (in C1CCCCC1): 0.57 | photoluminescence quantum yield (in C1COCCO1): 0.59 | photoluminescence quantum yield (in CC#N): 0.21 | photoluminescence quantum yield (in CC(C)=O): 0.36 | photoluminescence quantum yield (in CC(O)CO): 0.024 | photoluminescence quantum yield (in CCCCCCC): 0.56 | photoluminescence quantum yield (in CCO): 0.016 | photoluminescence quantum yield (in CCOC(C)=O): 0.52 | photoluminescence quantum yield (in CN(C)C=O): 0.22 | photoluminescence quantum yield (in CS(C)=O): 0.04 | photoluminescence quantum yield (in Cc1ccccc1): 0.57 | photoluminescence quantum yield (in ClC(Cl)Cl): 0.52 | photoluminescence quantum yield (in ClCCl): 0.55 | photoluminescence quantum yield (in OCC(O)CO): 0.019

photoluminescence quantum yield (in C1CCOC1): 0.78 | photoluminescence quantum yield (in C1COCCO1): 0.73 | photoluminescence quantum yield (in CC#N): 0.7 | photoluminescence quantum yield (in CC(C)O): 0.55 | photoluminescence quantum yield (in CCO): 0.47 | photoluminescence quantum yield (in CCOC(C)=O): 0.76 | photoluminescence quantum yield (in CN(C)C=O): 0.87 | photoluminescence quantum yield (in CO): 0.38 | photoluminescence quantum yield (in CS(C)=O): 0.88 | photoluminescence quantum yield (in O): 0.54
SMILES: COc1ccc(C2CC(c3ccc(O)cc3)=NN2c2ccc(S(N)(=O)=O)cc2)cc1 (configuration not stated)

photoluminescence quantum yield (in ClCCl): 0.6
SMILES: CCCCn1c2c(-c3ccc(N(c4ccccc4)c4ccccc4)cc3)cc(C#N)cc2c2cc(C#N)cc(-c3ccc(N(c4ccccc4)c4ccccc4)cc3)c21

photoluminescence quantum yield (in ClCCl): 0.7
SMILES: ClP1(Cl)=N[P@@](Cl)(Oc2ccc3ccc4cccc5ccc2c3c45)=N[P@@](Cl)(Oc2ccc3ccc4cccc5ccc2c3c45)=N1

photoluminescence quantum yield (in ClCCl): 0.03
SMILES: OB1c2ccccc2Nc2ccccc21

photoluminescence quantum yield (in CC#N): 0.27 | photoluminescence quantum yield (in CO): 0.27
SMILES: c1ccc(-c2nc(-c3ccccc3)c(-c3ccccc3)[nH]2)cc1

photoluminescence quantum yield (in ClCCl): 0.26
SMILES: CC(C)(C)c1ccc(-c2cc(-c3ccc(-c4cc(-c5ccc(C(C)(C)C)cc5)c(C(=O)N5CCOCC5)s4)s3)sc2C(=O)N2CCOCC2)cc1

photoluminescence quantum yield (in C1COCCO1): 0.031 | photoluminescence quantum yield (in CC#N): 0.034 | photoluminescence quantum yield (in CCCCCCC): 0.033 | photoluminescence quantum yield (in CO): 0.016
SMILES: C(/C=C/c1cc2c3c(c1)CCCN3CCC2)=C\c1ccncc1

SMILES: Cc1c(-c2ccc(N3c4ccccc4C(C)(C)c4ccccc43)cc2)ncnc1-c1ccc(N2c3ccccc3C(C)(C)c3ccccc32)cc1
photoluminescence quantum yield [1]: 0.75

photoluminescence quantum yield (in CC#N): 0.78 | photoluminescence quantum yield (in ClCCl): 0.99
SMILES: O=c1c2ccccc2nc2n1[B-](F)(F)[n+]1ccccc1-2

photoluminescence quantum yield (in C1CCOC1): 0.54 | photoluminescence quantum yield (in CC#N): 0.32 | photoluminescence quantum yield (in CO): 0.19 | photoluminescence quantum yield (in ClCCl): 0.48
SMILES: C(=C\c1ccc(-c2nc3c4cccnc4c4ncccc4c3[nH]2)cc1)/c1ccncc1

SMILES: COC(=O)c1ccc(C2=C3C=CC(C)=[N+]3[B-](F)(F)n3c(C)ccc32)cc1
photoluminescence quantum yield (in C1CCCCC1): 0.073 | photoluminescence quantum yield (in C1CCOC1): 0.056 | photoluminescence quantum yield (in CC#N): 0.039 | photoluminescence quantum yield (in CCOC(C)=O): 0.053 | photoluminescence quantum yield (in CO): 0.032 | photoluminescence quantum yield (in Cc1ccccc1): 0.12 | photoluminescence quantum yield (in ClC(Cl)Cl): 0.095

photoluminescence quantum yield (in CC#N): 0.034
SMILES: COC(=O)C12N=N[C@](C(=O)OC)(C3C4C=CC(C4)C31)[C@@H]1C[C@H]12 (some centres not stated)

photoluminescence quantum yield (in CC#N): 0.07
SMILES: C(#Cc1nccnc1C#Cc1ccccc1)c1ccccc1

SMILES: Cc1cc2ccccc2cc1C
photoluminescence quantum yield (in C1CCCCC1): 0.56

photoluminescence quantum yield (in C1CCOC1): 0.029 | photoluminescence quantum yield (in ClC(Cl)Cl): 0.04
SMILES: CCCCCCCCC1(CCCCCCCC)c2cc3c(cc2-c2sc(-c4ccc(/C=C5\SC(=S)N(CC)C5=O)c5nsnc45)cc21)C(CCCCCCCC)(CCCCCCCC)c1cc(-c2ccc(/C=C4\SC(=S)N(CC)C4=O)c4nsnc24)sc1-3

photoluminescence quantum yield (in ClCCl): 0.41
SMILES: C(=C\c1cnccn1)/c1ccc(N(c2ccccc2)c2ccccc2)cc1

SMILES: c1ccc2nc3cccc(-c4ccc(-n5c6ccccc6c6ccccc65)cc4)c3cc2c1
photoluminescence quantum yield (in CC#N): 0.325 | photoluminescence quantum yield (in CCCCCC): 0.0319 | photoluminescence quantum yield (in CCOCC): 0.102 | photoluminescence quantum yield (in ClCCl): 0.253

photoluminescence quantum yield (in ClC(Cl)Cl): 0.17
SMILES: Cc1ccc(C(=O)/N=c2\oc3cccc4c5c(-c6ccccc6)oc6cccc(c(c2-c2ccccc2)c34)c65)cc1

SMILES: Cc1ccc2c(c1)C(C)(C)c1cc(C)ccc1N2c1ccc2c(c1)C(C)(C)c1cc(N3c4ccc(C)cc4C(C)(C)c4cc(C)ccc43)ccc1S2(=O)=O
photoluminescence quantum yield [1]: 0.73

photoluminescence quantum yield (in CCO): 0.031 | photoluminescence quantum yield (in CS(C)=O): 0.012 | photoluminescence quantum yield (in O): 0.013
SMILES: CC1(C)C(/C=C/c2cc3ccc(O)cc3oc2=O)=[N+](CCCS(=O)(=O)[O-])c2ccc(S(=O)(=O)O)cc21

SMILES: CCN(CC)c1ccc([N+]2=Cc3ccc4c5c(ccc4c3O[B-]2(c2c(F)c(F)c(F)c(F)c2F)c2c(F)c(F)c(F)c(F)c2F)C=[N+](c2ccc(N(CC)CC)cc2)[B-](c2c(F)c(F)c(F)c(F)c2F)(c2c(F)c(F)c(F)c(F)c2F)O5)cc1
photoluminescence quantum yield (in Cc1ccccc1): 0.33 | photoluminescence quantum yield (in ClCCl): 0.1

photoluminescence quantum yield (in CCO): 0.11 | photoluminescence quantum yield (in CO): 0.09 | photoluminescence quantum yield (in CS(C)=O): 0.29
SMILES: CN1/C(=C/C=C(/C=C/C2=[N+](C)c3ccccc3C2(C)C)c2ccccc2)C(C)(C)c2ccccc21

photoluminescence quantum yield (in C1COCCO1): 0.71
SMILES: c1ccc(-c2ccc(-c3ccc(-c4ccccc4)cc3)cc2)cc1

photoluminescence quantum yield (in ClCCl): 0.03
SMILES: CC(=O)c1ccc(C#Cc2ccc(-c3cc(N(C)C)c4ccccc4c3)cc2)cc1

photoluminescence quantum yield (in ClCCl): 0.97
SMILES: c1ccc(-c2c3ccccc3c(-c3ccccc3)c3cc4ccccc4cc23)cc1

photoluminescence quantum yield (in CC#N): 0.98
SMILES: COc1ccc(-n2nc(C#N)c(N3CCCCCC3)n2)cc1
